US10208056B2, “Condensed tricyclic compounds as protein kinase inhibitors” (FUNDACIÓN DEL SECTOR PÚBLICO ESTATAL CENTRO NACIONAL DE …, priority 2015, dated 2019)
Where two headings read alike, the source gives them in different places.

Tests used:
[1] = biological target: CDK19/Cyclin C (Homo sapiens (Human), UniProt Q9BWU1); assay: CDK19/Cyclin C binding assay (LanthaScreen Eu-Kinase Binding Assay); conditions: read-out: CDK19-CYCC IC50
In short: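 LanthaScreen TR-FRET tracer-displacement format with 2 nM Cdk19-Cyclin C, 20 nM tracer and 2 nM Eu-anti-GST antibody. The buffer was 50 mM HEPES pH 7.5, 10 mM MgCl2, 1 mM EGTA, 0.01% Brij-35, with 1% DMSO final. Compounds were tested as 1:3 serial dilutions and incubated for 60 min at 25 °C.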

[2] = biological target: T1, intracellular HASPIN (Homo sapiens (Human), UniProt Q8TF76); assay: Cellular HASPIN inhibition assay, western blot phospho H3T3 in synchronized SW620 cells; assay type: cell-based; conditions: read-out: SW620 PH3(T3) in synchronized cells
Protocol: Compounds can be screened for their ability to inhibit intracellular HASPIN using a western blot assay to detect phosphorylation of the HASPIN substrate H3T3 in synchronized cells. SW620 cells are plated at 200000 cells per well in 6-well plates (Solmeglas 13118) in RPMI media (Sigma-Aldrich R6504) supplemented with 10% foetal bovine serum (Sigma-Aldrich F7524), Penicillin/Streptomycin solution diluted 1:100 (Gibco 15070-063), and fungizone (Gibco, 15290-018), and allowed to adhere overnight at 37° C. in 5% CO2. Cells are then treated 16 h hours with Nocadazole (Sigma-Aldrich M1404) at 250 ng/ml to arrest them in mitosis. Proteasoma inhibitor MG132 (Sigma-Aldrich C2211) is added to a final concentration of […] to keep cells arrested in mitosis. Compounds are then added to the cell media from a final concentration of 10 μM in 10-fold serial dilutions and the cells are incubated at 37° C. in 5% CO2. After 1 hour and 30 minutes of treatment with the compounds, the cells are washed in PBS, lysed adding 100 μl of protein lysis buffer (62.5 mM Tris pH 6.8 al 6.25%, 2% SDS y 10% glycerol) incubation 10 minutes at room temperature and heating at 95° C. 10 min. The protein content of the lysates is determined by DC protein assay (Biorad, Ref. 5000116). The proteins are resolved by SDS-PAGE and transferred to nitrocellulose membrane (VWR International eurolab, Ref. 732-4007). The membranes are incubated overnight at 4° C. with antibodies specific for total H3 (Millipore #07424), phosphothreonine-3 H3 (Cell Signaling Ref. 14269) they are washed and then incubated with IRDye800 conjugated anti-mouse (Pierce/Cultek, 35521) and Alexa Fluor 680 goat anti-rabbit IgG secondary antibodies (Invitrogen, A21076). The bands are visualized and quantified using an Odyssey infrared imaging system (Li-Cor Biosciences). The percentage of phosphorylated H3 vs total H3 in synchronized cells is taken as hundred percent of phosphorylation. The percentage of H3 phosphorylation is finally plotted against concentration for each compound and EC50s for intracellular HASPIN inhibition are calculated using ActivityBase from IDBS.

[3] = system: MV4:11; assay: In vitro cell proliferation assay (CellTiter-Glo), MV4:11; assay type: cell-based; conditions: Homo sapiens, MV4-11, growth inhibition, read-out: GI50 MV4:11
[4] = system: SW620; assay: In vitro cell proliferation assay (CellTiter-Glo), SW620; assay type: cell-based, human; conditions: Homo sapiens, SW-620, growth inhibition, read-out: GI50 SW620
[5] = system: Molm13; assay: In vitro cell proliferation assay (CellTiter-Glo), Molm13; assay type: cell-based; conditions: Homo sapiens, MOLM-13, growth inhibition, read-out: GI50 Molm13
[6] = biological target: T1, intracellular HASPIN; assay: Endogenous phosphoH3 inhibition in SW620 cells growing in 10% FBS; assay type: cell-based; conditions: read-out: SW620 pH3(T3)
Protocol: Endogenous phosphoH3 inhibition can be screened in cells growing in 10% FBS. Cells are plated as described before and treated for 8 h with compounds as described before. Then cells are lysated and phospho H3 evaluated as described before. The percentage of phosphorylated H3 vs total H3 in cells treated with DMSO is taken as hundred percent of phosphorylation. The percentage of H3 phosphorylation is finally plotted against concentration for each compound and EC50s for intracellular HASPIN inhibition are calculated using ActivityBase from IDBS.

T1 sequence (Q8TF76 whole entry): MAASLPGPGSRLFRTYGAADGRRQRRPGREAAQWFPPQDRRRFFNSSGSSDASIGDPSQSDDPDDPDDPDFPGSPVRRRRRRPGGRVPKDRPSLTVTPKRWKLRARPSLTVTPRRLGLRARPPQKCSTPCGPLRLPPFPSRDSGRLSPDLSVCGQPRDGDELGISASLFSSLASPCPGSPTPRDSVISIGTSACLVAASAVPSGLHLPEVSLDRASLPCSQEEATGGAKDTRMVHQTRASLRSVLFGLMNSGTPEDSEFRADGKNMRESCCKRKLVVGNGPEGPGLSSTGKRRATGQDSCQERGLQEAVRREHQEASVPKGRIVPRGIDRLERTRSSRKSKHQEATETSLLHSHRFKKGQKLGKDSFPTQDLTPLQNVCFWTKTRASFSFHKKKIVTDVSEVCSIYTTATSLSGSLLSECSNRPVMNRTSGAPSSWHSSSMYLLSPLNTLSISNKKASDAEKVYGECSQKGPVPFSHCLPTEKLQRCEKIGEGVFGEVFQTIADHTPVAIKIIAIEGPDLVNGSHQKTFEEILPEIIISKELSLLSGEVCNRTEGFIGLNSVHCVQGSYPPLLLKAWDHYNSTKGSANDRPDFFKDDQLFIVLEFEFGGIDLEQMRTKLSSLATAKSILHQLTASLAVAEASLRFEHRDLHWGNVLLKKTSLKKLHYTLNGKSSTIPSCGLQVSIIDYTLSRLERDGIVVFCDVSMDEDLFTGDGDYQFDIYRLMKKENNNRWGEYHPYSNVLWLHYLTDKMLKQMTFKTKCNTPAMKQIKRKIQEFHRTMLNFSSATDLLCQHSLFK
Sequence of CDK19/Cyclin C (Q9BWU1 whole entry): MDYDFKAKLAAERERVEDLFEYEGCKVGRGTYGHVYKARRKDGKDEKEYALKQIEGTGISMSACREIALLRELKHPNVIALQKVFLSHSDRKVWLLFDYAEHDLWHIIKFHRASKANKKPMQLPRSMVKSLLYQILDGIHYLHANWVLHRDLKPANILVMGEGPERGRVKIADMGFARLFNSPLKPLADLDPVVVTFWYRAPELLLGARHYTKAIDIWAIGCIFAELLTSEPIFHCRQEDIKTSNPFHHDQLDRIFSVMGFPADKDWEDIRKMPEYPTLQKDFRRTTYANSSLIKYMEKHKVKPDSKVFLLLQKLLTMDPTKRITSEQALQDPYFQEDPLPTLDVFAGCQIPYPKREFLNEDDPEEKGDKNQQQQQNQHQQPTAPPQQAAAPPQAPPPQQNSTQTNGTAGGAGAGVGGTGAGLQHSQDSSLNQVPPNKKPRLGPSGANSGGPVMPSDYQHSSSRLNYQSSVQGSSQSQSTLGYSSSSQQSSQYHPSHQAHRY
Sequence of CDK19/Cyclin C (P24863 whole entry partner): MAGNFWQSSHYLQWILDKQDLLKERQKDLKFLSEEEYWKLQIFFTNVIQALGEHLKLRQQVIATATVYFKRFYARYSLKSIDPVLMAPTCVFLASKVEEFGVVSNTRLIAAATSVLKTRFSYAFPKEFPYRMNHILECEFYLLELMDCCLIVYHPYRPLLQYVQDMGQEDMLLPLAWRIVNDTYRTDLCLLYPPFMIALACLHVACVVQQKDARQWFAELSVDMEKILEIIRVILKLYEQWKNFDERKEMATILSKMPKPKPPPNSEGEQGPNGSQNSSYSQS

Row | IC50 [1] [nM] | EC50 ([2]; semiquantitative) [nM] | GI50 ([3]; semiquantitative) [nM] | GI50 ([4]; semiquantitative) [nM] | GI50 ([5]; semiquantitative) [nM] | EC50 ([2]; quantitative) [nM] | EC50 ([6]; quantitative) [nM] | GI50 ([3]; quantitative) [nM] | GI50 ([4]; quantitative) [nM] | GI50 ([5]; quantitative) [nM] | EC50 ([6]; semiquantitative) [nM] | Structure (SMILES)
1 | 14.2 | 500 to 10000 | 1000 to 10000 | 10000 to 100000 | 1000 to 10000 | – | – | – | – | – | – | NC(=O)c1cc2c([nH]1)-c1ccncc1O[C@H]2C1CCOCC1 (single isomer, unassigned) [Example 72]
2 | 1.09 | – | – | – | – | 15 | 1.6 | 115 | 3390 | 349 | – | CCn1c(C(N)=O)cc2c1-c1ccncc1OC2(C)C [Example 43]
3 | 1.41 | < 500 | < 1000 | 1000 to 10000 | < 1000 | – | – | – | – | – | < 500 | CC1(C)Oc2cnccc2-c2c1cc(C(N)=O)n2CCF [Example 52]
4 | 16.4 | < 500 | < 1000 | 10000 to 100000 | < 1000 | – | – | – | – | – | < 500 | CCn1c(C(N)=O)c(-c2ccccc2OC)c2c1-c1ccncc1OC2(C)C [Example 68]
